From publication PMC10817097, “Caffeic Acid Phosphanium Derivatives: Potential Selective Antitumor, Antimicrobial and Antiprotozoal Agents” (International Journal of Molecular Sciences, 2024)

Key:
Assay type in all cases: cell-based
A. quina (AcaVNAK03) = experiment: Amoebicidal activity assay on trophozoites; conditions: Acanthamoeba quina, 24 h of incubation
Procedure: (§1) The activity against two clinical isolates of free-living amoebae, Acanthamoeba lugdunensis (strain AcaVNAK02) and Acanthamoeba quina (strain AcaVNAK03), both belonging to the T4 genotype, was tested in vitro as previously described. The trophozoites were cultivated in 25 cm^2 tissue culture flasks under axenic conditions in peptone-yeast extract-glucose medium (PYG). The cultivation was carried out under aerobic conditions at laboratory temperature. For the experiments, a fresh 72 h culture was used. Acanthamoebae adherent to flasks represented the trophozoite form and was used in the subsequent assay. Experiments were carried out in 96-well microtiter plates under sterile conditions at 37 °C. Each well was seeded with 100 µL (2 × 10^5 cells mL^−1) of a trophozoite suspension. Then, 100 µL of a freshly prepared medium containing a tested compound at 6 different concentrations was added to all wells, except for the untreated control wells that received 100 µL of the pure medium. Each compound was tested at final concentrations of 500, 250, 125, 62.5, 31.25, and 15.6 µM. The reduction of trophozoites was recorded after 24 h by counting the surviving cells in a Bürker–Türk hemocytometer. The growth control after 24 h (amoebae in inoculum without treatment): A. lugdunensis (AcaVNAK02): 2.5 × 10^5 cells mL^−1, A. quina (AcaVNAK03): 2.1 × 10^5cells/mL comparing to initial inoculum 1 × 10^5 cells mL^−1. The viability of trophozoites was determined by trypan blue exclusion. The EC50 (effective concentration of tested compound that reduces the survival of amoebae by 50%) values were calculated by linear regression analysis using Microsoft Office Excel 2016 (Microsoft Corporation, Redmond, WA, USA) software. All experiments were performed in quadruplicate for each concentration.

[1] = system: A. lugdunensis (AcaVNAK02); experiment: Amoebicidal activity assay on trophozoites; conditions: Acanthamoeba lugdunensis, 24 h of incubation
Procedure: as §1

[2] = system: Jurkat (human leukemic T cell lymphoma); experiment: MTS cell proliferation/viability assay; conditions: 72 h
Procedure: (§2) The human cancer cell line HCT116 (human colorectal adenocarcinoma), HeLa (human cervical adenocarcinoma), Jurkat (human leukemic T cell lymphoma), and MDA-MB-231 (human mammary gland adenocarcinoma, triple-negative) were cultured in RPMI 1640 medium (Biosera, Kansas City, MO, USA). MCF-7 (human breast adenocarcinoma), A2058 (human metastatic melanoma), PANC-1 (human pancreatic adenocarcinoma), and NIH 3T3 (murine fibroblasts) cell lines were maintained in a growth medium consisting of high glucose Dulbecco’s Modified Eagle Medium with sodium pyruvate (Biosera, Kansas City, MO, USA). MCF-10A cell line (human mammary gland epithelial cells) was maintained in a growth medium consisting of high glucose DMEM F12 Medium (Biosera, Kansas City, MO, USA) + Suppl. (insulin, EGF-[…], HC-hydrocortisone, choleratoxin all Sigma, Steinheim, Germany). The growth medium was supplemented with a 10% fetal bovine serum, penicillin (100 IU/mL), and streptomycin (100 μg/mL) (all Invitrogen, Carlsbad, CA, USA), and cells were maintained in an atmosphere containing 5% CO2 in humidified air at 37 °C. Cell viability, estimated by trypan exclusion, was greater than 95% before each experiment.
(§3) The metabolic activity colorimetric assay (MTS) was used to determine the effects of CA (c = 10–300 µM) and compounds CAP 6, CAP 8, CAP 10, and CAP 12 (c = 1–100 µM) on the metabolic activity of several cell lines. After 72 h of incubation, 10 µL of MTS (Promega, Madison, WI, USA) was added to each well according to the CellTiter 96® AQueous One Solution Cell Proliferation Assay protocol. After a minimum of 1 h incubation, the absorbance was measured at 490 nm using the automated Cytation^TM 3 Cell Imaging Multi-Mode Reader (Biotek, Winooski, VT, USA). The absorbance of the control wells was taken as 1.0 (100%), and the results were expressed as a fold of the control. All experiments were performed in triplicate. Ideal predictive IC50 values were calculated from MTS analyses-based concentration concentration-dependent trends.

[3] = system: PANC-1 (human pancreatic adenocarcinoma); experiment: MTS cell proliferation/viability assay; conditions: PANC-1, MTS, 72 h
Procedure: as §2, §3

[4] = system: MDA-MB-231 (human mammary gland adenocarcinoma); experiment: MTS cell proliferation/viability assay; conditions: MDA-MB-231, MTS, 72 h
Procedure: as §2, §3

[5] = system: HeLa (human cervical adenocarcinoma); experiment: MTS cell proliferation/viability assay; conditions: 72 h
Procedure: as §2, §3

[6] = system: A2058 (human metastatic melanoma); experiment: MTS cell proliferation/viability assay; conditions: 72 h
Procedure: as §2, §3

[7] = system: MCF-7 (human breast adenocarcinoma); experiment: MTS cell proliferation/viability assay; conditions: MCF7, MCF-7, MTS, 72 h
Procedure: as §2, §3

[8] = system: HCT116 (human colorectal adenocarcinoma); experiment: MTS cell proliferation/viability assay; conditions: HCT-116, 72 h
Procedure: as §2, §3

What does the source list for `O=C(O)C=Cc1ccc(O)c(O)c1` [CA, 3-(3,4-dihydroxyphenyl)-2-propenoic acid, reference compound]?
EC50 (A. quina (AcaVNAK03)): 3000 ± 1510 µM; EC50 [1]: > 100000 µM; IC50 [2]: > 300 µM; IC50 [3]: > 300 µM; IC50 [4]: > 300 µM; IC50 [5]: > 300 µM; IC50 [6]: > 300 µM; IC50 [7]: > 300 µM; IC50 [8]: > 300 µM

What does the source list for `CC(=O)Oc1ccc(/C=C/C(=O)OCCCCCC[P+](c2ccccc2)(c2ccccc2)c2ccccc2)cc1OC(C)=O` [CAP 6, P,P,P-triphenyl-6-{(2E)-3-[3,4-(diacetyloxy)penyl]prop-2-enoyloxy}hexane-1-phosphanium bromide]?
EC50 (A. quina (AcaVNAK03)): 44.1 ± 9.2 µM; EC50 [1]: 74.2 ± 18.4 µM; IC50 [2]: 8.5 ± 0.2 µM; IC50 [3]: 98.8 ± 2.4 µM; IC50 [4]: 37 ± 0.3 µM; IC50 [5]: 34 ± 1.8 µM; IC50 [6]: 30.5 ± 1.5 µM; IC50 [7]: 44.5 ± 0.1 µM; IC50 [8]: 31 ± 0.4 µM

Which results are given for `CC(=O)Oc1ccc(/C=C/C(=O)OCCCCCCCC[P+](c2ccccc2)(c2ccccc2)c2ccccc2)cc1OC(C)=O` [CAP 8, P,P,P-triphenyl-8-{(2E)-3-[3,4-(diacetyloxy)penyl]prop-2-enoyloxy}okctane-1-phosphanium bromide]?
EC50 (A. quina (AcaVNAK03)): 94.1 ± 14.5 µM; EC50 [1]: 99.8 ± 23.7 µM; IC50 [2]: 6.9 ± 0.3 µM; IC50 [3]: > 100 µM; IC50 [4]: 4.8 ± 0.5 µM; IC50 [5]: 7.1 ± 0.3 µM; IC50 [6]: 9.4 ± 0.3 µM; IC50 [7]: 48.7 ± 0.1 µM; IC50 [8]: 8.3 ± 0.6 µM

For `CC(=O)Oc1ccc(/C=C/C(=O)OCCCCCCCCCC[P+](c2ccccc2)(c2ccccc2)c2ccccc2)cc1OC(C)=O` [CAP 10, P,P,P-triphenyl-10-{(2E)-3-[3,4-(diacetyloxy)penyl]prop-2-enoyloxy}decane-1-phosphanium bromide], which EC50 (A. quina (AcaVNAK03)) is on record?
Its EC50 is 291 ± 36.8 µM.

And the EC50 [1]?
The EC50 was 834 ± 303 µM.

What about the IC50 [3] of the same compound?
The IC50 was 91.2 ± 2.6 µM.

And the IC50 [4]?
Its IC50 is 4.9 ± 0.5 µM.

What about the IC50 [5] of the same compound?
The IC50 was 8 ± 0.7 µM.

And the IC50 [6]?
The IC50 was 9 ± 0.5 µM.

And the IC50 [7]?
The IC50 was 9.5 ± 0.2 µM.

And the IC50 [8]?
The IC50 was 9.2 ± 0.3 µM.

For `CC(=O)Oc1ccc(/C=C/C(=O)OCCCCCCCCCCCC[P+](c2ccccc2)(c2ccccc2)c2ccccc2)cc1OC(C)=O` [CAP 12, P,P,P-triphenyl-12-{(2E)-3-[3,4-(diacetyloxy)penyl]prop-2-enoyloxy}dodecane-1-phosphanium bromide], which EC50 (A. quina (AcaVNAK03)) is on record?
The EC50 was 3320 ± 2060 µM.

What about the EC50 [1] of the same compound?
The EC50 was 3120 ± 941 µM.

What about the IC50 [3] of the same compound?
The IC50 was greater than 100 µM.

What about the IC50 [4] of the same compound?
The IC50 was 3.5 ± 0.6 µM.

What about the IC50 [5] of the same compound?
Its IC50 is 3.3 ± 1.1 µM.

What about the IC50 [6] of the same compound?
Its IC50 is 9 ± 0.5 µM.

And the IC50 [7]?
Its IC50 is 4.9 ± 0.7 µM.

And the IC50 [8]?
The IC50 was 8.3 ± 0.6 µM.
